Legend:
WDR5 [1] = molecular target: T1, WDR5 (Homo sapiens, UniProt P61964); assay: Surface Plasmon Resonance (SPR) assay; assay type: binding; set-up: Full length WDR5 with an N-terminal His tag and C-terminal AviTag; His tag (N); made in house; host or cells: E. coli; details: read-out: SPR Kd
Procedure, shortened: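 Full-length biotinylated WDR5 (N-His, C-AviTag, E. coli) captured (~3000 RU) on streptavidin SA chip; Biacore T200. HBS-EP pH 7.4 plus 5% DMSO running buffer, 40 μl/min.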

MV4-11 cells = assay: Cell proliferation assay (ATPlite); assay type: cell-based; details: Homo sapiens, 120 h; MV4-11 cells, five days; read-out: GI MV411 EC50
Procedure, shortened: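 ATPlite luminescence after five days' culture (37° C, 5% CO2) gives viability. Compounds dosed in 10 concentrations up to 10 μM against DMSO; 1,000 cells/well seeded in Alpha-MEM/10% FBS.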

WDR5 [2] = molecular target: T1, WDR5; assay: Fluorescence Polarization (FP) binding assay
Procedure, shortened: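 Buffer was pH 6.5 sodium phosphate (80 mM) with 20 mM KCl and 0.008% Triton X-100; 9-Ala-FAM probe at 20 nM used 0.05 μM WDR5 and 480/540 nm polarization, H3 (1-15) probe at 30 nM used 0.3 μM WDR5 and 485/528 nm. Quadruplicate data were hyperbola-fitted to give Kdisp.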

Structure (SMILES)	Kd (WDR5 [1]) [nM]	EC50 (MV4-11 cells) [nM]	IC50 (WDR5 [2]) [nM]
C[C@H]1CN(c2cc(F)c(C3=CCN(c4ncc(F)cn4)CC3)c(F)c2NC(=O)c2c[nH]c(=O)cc2C(F)F)CCN1C [Example 81, (S)-4-(difluoromethyl)-N-(6-(3,4-dimethylpiperazin-1-yl)-2,4-difluoro-3-(1-(5-fluoropyrimidin-2-yl)-1,2,3,6-tetrahydropyridin-4-yl)phenyl)-6-oxo-1,6-dihydropyridine-3-carboxamide]	1.37	44	12.5
COc1cc(N2CCC=C(c3c(F)cc(N4C[C@@H](C)N(C)[C@@H](C)C4)c(NC(=O)c4c[nH]c(=O)cc4C(F)(F)F)c3F)C2)ncn1 [Example 142, N-(2,4-difluoro-3-(1-(6-methoxypyrimidin-4-yl)-1,2,5,6-tetrahydropyridin-3-yl)-6-((3S,5R)-3,4,5-trimethylpiperazin-1-yl)phenyl)-6-oxo-4-(trifluoromethyl)-1,6-dihydropyridine-3-carboxamide]	1.76	38.3	13.2
C[C@@H]1CN(c2nc(-c3c(F)cc(N4CCN(C)[C@@H](C)C4)c(NC(=O)c4c[nH]c(=O)cc4C(F)(F)F)c3F)cs2)C[C@H](C)O1 [Example 131, N-(3-(2-((2S,6R)-2,6-dimethylmorpholino)thiazol-4-yl)-6-((S)-3,4-dimethylpiperazin-1-yl)-2,4-difluorophenyl)-6-oxo-4-(trifluoromethyl)-1,6-dihydropyridine-3-carboxamide]	5.12	208	16.6
C[C@@H]1CN(c2ccc(-c3c(F)cc(N4CCN(C)[C@@H](C)C4)c(NC(=O)c4ccc(F)cc4C(F)F)c3F)cn2)C[C@H](C)O1 [Example 178, 2-(Difluoromethyl)-N-(3-(6-((2S,6R)-2,6-dimethylmorpholino)pyridin-3-yl)-6-((S)-3,4-dimethylpiperazin-1-yl)-2,4-difluorophenyl)-4-fluorobenzamide]	1.42	189	19.7
COc1cnc(N2CC=C(c3c(F)cc(N4C[C@@H](C)N(C)[C@@H](C)C4)c(NC(=O)c4c[nH]c(=O)cc4C(F)(F)F)c3F)CC2)nc1 [Example 137, N-(2,4-difluoro-3-(1-(5-methoxypyrimidin-2-yl)-1,2,3,6-tetrahydropyridin-4-yl)-6-((3S,5R)-3,4,5-trimethylpiperazin-1-yl)phenyl)-6-oxo-4-(trifluoromethyl)-1,6-dihydropyridine-3-carboxamide]	2.57	75.1	17
C[C@@H]1CN(c2cc(F)c(-c3ccc4c(c3)OCO4)c(F)c2NC(=O)c2c[nH]c(=O)cc2C(F)(F)F)C[C@H](C)N1C [Example 71, N-(3-(benzo[d][1,3]dioxol-5-yl)-2,4-difluoro-6-((3S,5R)-3,4,5-trimethylpiperazin-1-yl)phenyl)-6-oxo-4-(trifluoromethyl)-1,6-dihydropyridine-3-carboxamide]	1.65	64.4	15.1
CC(C)OC(=O)N1CC=C(c2c(F)cc(N3CCN(C)[C@@H](C)C3)c(NC(=O)c3c[nH]c(=O)cc3C(F)F)c2F)CC1 [Example 34, Isopropyl (S)-4-(3-(4-(difluoromethyl)-6-oxo-1,6-dihydropyridine-3-carboxamido)-4-(3,4-dimethylpiperazin-1-yl)-2,6-difluorophenyl)-3,6-dihydropyridine-1(2H)-carboxylate]	2.02	44.4	22
CC(C)OC(=O)N1CCC=C(c2c(F)cc(N3CCN(C)[C@@H](C)C3)c(NC(=O)c3c[nH]c(=O)cc3C(F)(F)F)c2F)C1 [Example 38, Isopropyl (S)-5-(4-(3,4-dimethylpiperazin-1-yl)-2,6-difluoro-3-(6-oxo-4-(trifluoromethyl)-1,6-dihydropyridine-3-carboxamido)phenyl)-3,6-dihydropyridine-1(2H)-carboxylate]	16.4	185	17.4

Next, values leading:

Kd (WDR5 [1]) [nM]	EC50 (MV4-11 cells) [nM]	IC50 (WDR5 [2]) [nM]	Structure (SMILES)
0.68	24	15.3	C[C@@H]1CN(c2cc(F)c(C3=CCN(c4ccnc(C#N)n4)CC3)c(F)c2NC(=O)c2c[nH]c(=O)cc2C(F)(F)F)C[C@H](C)N1C [Example 152, N-(3-(1-(2-cyanopyrimidin-4-yl)-1,2,3,6-tetrahydropyridin-4-yl)-2,4-difluoro-6-((3S,5R)-3,4,5-trimethylpiperazin-1-yl)phenyl)-6-oxo-4-(trifluoromethyl)-1,6-dihydropyridine-3-carboxamide]
1.34	24.4	22.7	C[C@H]1CN(c2ccc(-c3c(F)cc(N4CCN(C)[C@@H](C)C4)c(NC(=O)c4c[nH]c(=O)cc4C(F)F)c3F)cn2)CCO1 [Example 183, 4-(Difluoromethyl)-N-(6-((S)-3,4-dimethylpiperazin-1-yl)-2,4-difluoro-3-(6-((S)-2-methylmorpholino)pyridin-3-yl)phenyl)-6-oxo-1,6-dihydropyridine-3-carboxamide]
0.61	14.5	14.9	C[C@@H]1CN(c2ncc(-c3c(F)cc(N4CCN(C)[C@@H](C)C4)c(NC(=O)c4c[nH]c(=O)cc4C(F)F)c3F)cn2)C[C@H](C)O1 [Example 33, 4-(Difluoromethyl)-N-(3-(2-((2S,6R)-2,6-dimethylmorpholino)pyrimidin-5-yl)-6-((S)-3,4-dimethylpiperazin-1-yl)-2,4-difluorophenyl)-6-oxo-1,6-dihydropyridine-3-carboxamide]
1.02	124	18.9	C[C@@H]1CN(c2ccc(-c3c(F)cc(N4CCN(C)[C@@H](C)C4)c(NC(=O)c4ccc(F)cc4C(F)(F)F)c3F)cn2)CCO1 [Example 172, N-(6-((S)-3,4-dimethylpiperazin-1-yl)-2,4-difluoro-3-(6-((R)-2-methylmorpholino)pyridin-3-yl)phenyl)-4-fluoro-2-(trifluoromethyl)benzamide]
0.53	48.4	12.9	C[C@@H]1CN(c2cc(F)c(C3=CCN(c4ncc(C#N)s4)C3)c(F)c2NC(=O)c2c[nH]c(=O)cc2C(F)(F)F)C[C@H](C)N1C [Example 150, N-(3-(1-(5-cyanothiazol-2-yl)-2,5-dihydro-1H-pyrrol-3-yl)-2,4-difluoro-6-((3S,5R)-3,4,5-trimethylpiperazin-1-yl)phenyl)-6-oxo-4-(trifluoromethyl)-1,6-dihydropyridine-3-carboxamide]
1.1	79.3	11.9	C[C@@H]1CN(c2ncc(-c3c(F)cc(N4CCN(C)[C@@H](C)C4)c(NC(=O)c4cn(C)c(=O)cc4C(F)F)c3F)cn2)C[C@H](C)O1 [Example 161, 4-(Difluoromethyl)-N-(3-(2-((2S,6R)-2,6-dimethylmorpholino)pyrimidin-5-yl)-6-((S)-3,4-dimethylpiperazin-1-yl)-2,4-difluorophenyl)-1-methyl-6-oxo-1,6-dihydropyridine-3-carboxamide]
1.07	15.7	11.9	CC(C)[C@H]1CN(c2ncc(-c3c(F)cc(N4CCN(C)[C@@H](C)C4)c(NC(=O)c4c[nH]c(=O)cc4C(F)F)c3F)cn2)CCO1 [Example 121, 4-(Difluoromethyl)-N-(6-((S)-3,4-dimethylpiperazin-1-yl)-2,4-difluoro-3-(2-((S)-2-isopropylmorpholino)pyrimidin-5-yl)phenyl)-6-oxo-1,6-dihydropyridine-3-carboxamide]
0.96	31.2	10.1	C[C@@H]1CN(c2cc(F)c(C3=CCN(C(=O)OC4(C)CCC4)C3)c(F)c2NC(=O)c2c[nH]c(=O)cc2C(F)(F)F)C[C@H](C)N1C [Example 141, 1-Methylcyclobutyl 3-(2,6-difluoro-3-(6-oxo-4-(trifluoromethyl)-1,6-dihydropyridine-3-carboxamido)-4-((3S,5R)-3,4,5-trimethylpiperazin-1-yl)phenyl)-2,5-dihydro-1H-pyrrole-1-carboxylate]
1.32	76.7	12.1	C[C@H]1CN(c2cc(F)c(C3=CCN(C(=O)OC4CC(F)(F)C4)C3)c(F)c2NC(=O)c2c[nH]c(=O)cc2C(F)(F)F)CCN1C [Example 45, 3,3-Difluorocyclobutyl (S)-3-(4-(3,4-dimethylpiperazin-1-yl)-2,6-difluoro-3-(6-oxo-4-(trifluoromethyl)-1,6-dihydropyridine-3-carboxamido)phenyl)-2,5-dihydro-1H-pyrrole-1-carboxylate]
0.69	5.85	12.8	C[C@@H]1CN(c2ncc(-c3c(F)cc(N4C[C@@H](C)N(C)[C@@H](C)C4)c(NC(=O)c4c[nH]c(=O)cc4C(F)(F)F)c3F)cn2)CCO1 [Example 128, N-(2,4-difluoro-3-(2-((R)-2-methylmorpholino)pyrimidin-5-yl)-6-((3S,5R)-3,4,5-trimethylpiperazin-1-yl)phenyl)-6-oxo-4-(trifluoromethyl)-1,6-dihydropyridine-3-carboxamide]
0.22	65.6	16.1	C[C@H]1CN(c2ncc(-c3c(F)cc(N4CCN(C)[C@@H](C)C4)c(NC(=O)c4ccc(F)cc4C(F)F)c3F)cn2)C[C@H](C)O1 [Example 157, 2-(Difluoromethyl)-N-(3-(2-((2S,6S)-2,6-dimethylmorpholino)pyrimidin-5-yl)-6-((S)-3,4-dimethylpiperazin-1-yl)-2,4-difluorophenyl)-4-fluorobenzamide]
